From PMC10046377, “Inhibitors of the Oncogenic PA2G4-MYCN Protein-Protein Interface” (Cancers, 2023)

What was measured:
SK-N-BE(2)-C cells = assay: Alamar Blue cell viability assay, SK-N-BE(2)-C; assay type: cell-based; settings: Homo sapiens, MYCN amplified neuroblastoma cell line
From the text: (§1) The MYCN amplified neuroblastoma cell line SK-N-BE(2)-C was kindly provided by Professor June Biedler (Memorial Sloan Kettering Cancer Centre, New York, NY, USA), and Kelly was obtained from European Collection of Cell Cultures. The two normal lung fibroblast cell lines (MRC-5 and WI-38) were purchased from ATCC. SK-N-BE(2)-C shMYCN#2 doxycycline-inducible cell and Kelly shMYCN#2 doxycycline-inducible cell were custom-made by GenScript (Piscataway, NJ, USA). SK-N-BE(2)-C, SK-N-BE(2)-C shMYCN#2, and SHEP MYCN3 doxycycline-inducible cells were maintained in Dulbecco’s modified Eagle’s medium (DMEM) (Invitrogen, Life Technologies, Waltham, MA, USA) with 10% foetal calf serum (FCS). Kelly and Kelly shMYCN#2 doxycycline-inducible cell were cultured in Roswell Park Memorial Institute (RPMI) 1640 (Invitrogen, Life Technologies) with 10% FCS. MRC-5 and WI-38 were cultured in Alpha-MEM media (Invitrogen, Life Technologies) with 10% FCS. All cells were not cultured for more than 2 months. All used cell lines were authenticated by Cell Bank Australia (Westmead, NSW, Australia) as being free from mycoplasma, and cultured at 37 °C and 5% CO2 in a humidifier incubator.
(§2) Cell viability was determined by the Alamar Blue assay (75 mg resazurin, 12.5 mg methylene blue, 164.5 mg potassium hexacyanoferrate (III), 211 mg potassium hexacyanoferrate (II) trihydrate in 500 mL of phosphate buffered saline). After 6 h incubation with Alamar Blue, the change of fluorescence was measured by Victor 3 multilabel Plate Reader (Perkin Elmer Australia, Melburne, Australia) at an excitation wavelength of 560 nm and an emission wavelength of 590 nm.
(§3) We have shown that the PA2G4 protein increased the half-life of the oncoprotein MYCN through direct binding, and competitive chemical inhibition of this bond by WS6 reduced tumorigenicity both in vitro and in vivo [11]. […] Here, we explored the structure–activity relationship (SAR) of WS6 analogue compounds with the aim to increase efficacy and reduce toxicity. […] The in vitro cytotoxicity of these 14 compounds were measured by cell viability assays using Alamar Blue in MYCN amplified human neuroblastoma (SK-N-BE(2)-C and Kelly) cell lines compared to non-malignant (WI-38, MRC-5) myofibroblast cell lines (Figure 1B,C and Supplementary Figure S1A).

WI-38 cells = assay: Alamar Blue cell viability assay, WI-38 non-malignant myofibroblasts; assay type: cell-based; settings: Homo sapiens, read-out: IC50 WI-36
From the text: as §1, §2, §3

[1] = test system: TH-MYCN neuroblastoma mice; design: method as in PMID 31501192; settings: cited from earlier work
Kelly cells = assay: Alamar Blue cell viability assay, Kelly; assay type: cell-based; settings: Homo sapiens, MYCN amplified neuroblastoma cell line
From the text: as §1, §2, §3

[2] = test system: neuroblastoma cells (Kelly, SK-N-BE(2)-C) compared to non-malignant myofibroblasts (WI-38, MRC-5); assay: Therapeutic window, neuroblastoma cells versus non-malignant myofibroblasts; assay type: cell-based, human; settings: non-malignant myofibroblast IC50 versus neuroblastoma cell IC50
Description: as §2, §3

MRC-5 cells = assay: Alamar Blue cell viability assay, MRC-5 non-malignant myofibroblasts; assay type: cell-based; settings: Homo sapiens, MRC5
From the text: as §1, §2, §3

For CN1CCN(Cc2ccc(NC(=O)Cc3ccc(Oc4cc(NC(=O)C5CC5)ncn4)cc3)cc2C(F)(F)F)CC1 [WS6, reference compound], the IC50 (SK-N-BE(2)-C cells) is given as 750 nM, the IC50 (WI-38 cells) is given as 1500 nM and the tumorigenicity [1] is given as “significantly decreased tumorigenicity”. For the same compound, the IC50 (Kelly cells) was 650 nM, the “Therapeutic window (fold difference)” value [2] was 2.1 fold and the IC50 (MRC-5 cells) was 1400 nM.
